Reference: patent publication US12435089B2, “3-oxadiazolyl substituted pyrazolo[1,5,a]pyrimidines for ROS1, NTRK, and ALK mediated diseases” (TYK MEDICINES, INC., priority 2019, dated 2025)
Where two headings read alike, the source gives them in different places.

Key:
ALK (G1202R) = ALK (G1202R) (Homo sapiens (Human), UniProt Q9UM73, G1202R); assay: Radio-tagged HotSpot kinase assay, ALK (G1202R); assay type: biochemical; conditions: 33P-ATP, 120 min, room temperature
Procedure: (§2) Inhibition of protein kinase activity by compounds was carried out on the Radio-tagged HotSpot kinase experimental platform of Reaction Biology Corporation. Fresh reaction solution (20 mM HEPESpH 7.5, 10 mM MgCl2, 1 mM EGTA, 0.02% Brij35, 0.02 mg/ml BSA, 0.1 mM Na3VO4, 2 mM DTT, 1% DMSO) containing corresponding substrates was prepared, cofactor and kinase to be tested were added into the above solution and mixed gently. Echo550 pipetting system was used to add the test compound DMSO solution to each well (the blank control group was added with the corresponding volume of DMSO), then 33P-ATP (with a final specific activity of 0.01 μCi/μL) was added to start the reaction. The reaction solution was incubated at room temperature for 120 minutes.

TRKB = TRKB (Homo sapiens (Human), UniProt Q16620); assay: Radio-tagged HotSpot kinase assay, TRKB; assay type: biochemical; conditions: 33P-ATP, 120 min, room temperature
Procedure: as §2

TRKA (G677C) = TRKA (G677C) (Homo sapiens, UniProt P04629, G667C); assay: Radio-tagged HotSpot kinase assay, TRKA (G677C); assay type: biochemical; conditions: 33P-ATP, 120 min, room temperature
Procedure: as §2

TRKA (G595R) = TRKA (G595R) (Homo sapiens (Human), UniProt P04629, G595R); assay: Radio-tagged HotSpot kinase assay, TRKA (G595R)
Procedure: as §2

TRKA = TRKA (Homo sapiens (Human), UniProt P04629); assay: Radio-tagged HotSpot kinase assay, TRKA;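 further: kinase activity measured through incorporation of 33P from labelled ATP into substrate, 120 min at room temperature, relative to a DMSO-only blank control, reported as inhibition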
Procedure: as §2

TRKC = TRKC (Homo sapiens (Human), UniProt Q16288); assay: Radio-tagged HotSpot kinase assay, TRKC; assay type: biochemical; conditions: 33P-ATP, 120 min, room temperature
Procedure: as §2

ROS1 (G2032R) = ROS1 (G2032R) (Homo sapiens (Human), UniProt P08922, G2032R); assay: Radio-tagged HotSpot kinase assay, ROS1 (G2032R)
Procedure: as §2

ALK = ALK (Homo sapiens (Human), UniProt Q9UM73); assay: Radio-tagged HotSpot kinase assay, ALK; assay type: biochemical; conditions: 33P-ATP, 120 min, room temperature
Procedure: as §2

ROS1 = ROS1 (Homo sapiens (Human), UniProt P08922); assay: Radio-tagged HotSpot kinase assay, ROS1; conditions: read-out: ROS1 (IC50/nM); 33P-ATP, 120 min, room temperature
Procedure: as §2

Ba/F3-CD74-ROS1 = assay: Inhibition of cell proliferation (CellTiter-Glo), Ba/F3-CD74-ROS1; assay type: cell-based; conditions: 72 hours
Procedure: (§1) The experiment of inhibiting cell proliferation by compounds was carried out in Hefei Zhongkeprecedo Biomedical Technology Co., Ltd. The Ba/F3 engineered cell line stably transfected with different kinase genes was recovered with RPMI 1640 medium (Biological Industries, Israel)+10% fetal bovine serum (Biological Industries, Israel)+1% double antibody (Penicillin Streptomycin solution, Coring, USA) and cultivated two generations. The logarithmic growth phase cell suspension was taken, and 2000 cells/well were inoculated on 96-well white cell culture plate (Corning 3917, NY, USA) with a volume of 95 μL per well. 5 μL of 20×DMSO solution of the compound to be tested was added into the culture plate containing 95 μL of cell suspension. The blank control group was added with corresponding volume of DMSO, mixed well, and incubated in a 5% CO2 incubator at 37° C. for 72 hours. CellTiter-Glo was used to detect cell viability.

Ba/F3-CD74-ROS1-G2032R = assay: Inhibition of cell proliferation (CellTiter-Glo), Ba/F3-CD74-ROS1-G2032R; assay type: cell-based; conditions: 72 hours;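 further: Ba/F3 cell line expressing the CD74-ROS1 fusion with G2032R mutation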
Procedure: as §1

Ba/F3-LMNA-NTRK1-G595R = assay: Inhibition of cell proliferation (CellTiter-Glo), Ba/F3-LMNA-NTRK1-G595R; assay type: cell-based; conditions: 72 hours
Procedure: as §1

Ba/F3-TEL-ALK-G1202R = assay: Inhibition of cell proliferation (CellTiter-Glo), Ba/F3-TEL-ALK-G1202R; assay type: cell-based; conditions: 72 hours
Procedure: as §1

Ba/F3-LMNA-NTRK1 = assay: Inhibition of cell proliferation (CellTiter-Glo), Ba/F3-LMNA-NTRK1; assay type: cell-based; conditions: 72 hours
Procedure: as §1

[1] = read-out: TRKA (IC50/nM), 33P-ATP, 120 min, room temperature
[2] = read-out: ROS1 (G2032R) (IC50/nM), 33P-ATP, 120 min, room temperature

Chain of ROS1 (G2032R) (P08922 28-2347 G2032R): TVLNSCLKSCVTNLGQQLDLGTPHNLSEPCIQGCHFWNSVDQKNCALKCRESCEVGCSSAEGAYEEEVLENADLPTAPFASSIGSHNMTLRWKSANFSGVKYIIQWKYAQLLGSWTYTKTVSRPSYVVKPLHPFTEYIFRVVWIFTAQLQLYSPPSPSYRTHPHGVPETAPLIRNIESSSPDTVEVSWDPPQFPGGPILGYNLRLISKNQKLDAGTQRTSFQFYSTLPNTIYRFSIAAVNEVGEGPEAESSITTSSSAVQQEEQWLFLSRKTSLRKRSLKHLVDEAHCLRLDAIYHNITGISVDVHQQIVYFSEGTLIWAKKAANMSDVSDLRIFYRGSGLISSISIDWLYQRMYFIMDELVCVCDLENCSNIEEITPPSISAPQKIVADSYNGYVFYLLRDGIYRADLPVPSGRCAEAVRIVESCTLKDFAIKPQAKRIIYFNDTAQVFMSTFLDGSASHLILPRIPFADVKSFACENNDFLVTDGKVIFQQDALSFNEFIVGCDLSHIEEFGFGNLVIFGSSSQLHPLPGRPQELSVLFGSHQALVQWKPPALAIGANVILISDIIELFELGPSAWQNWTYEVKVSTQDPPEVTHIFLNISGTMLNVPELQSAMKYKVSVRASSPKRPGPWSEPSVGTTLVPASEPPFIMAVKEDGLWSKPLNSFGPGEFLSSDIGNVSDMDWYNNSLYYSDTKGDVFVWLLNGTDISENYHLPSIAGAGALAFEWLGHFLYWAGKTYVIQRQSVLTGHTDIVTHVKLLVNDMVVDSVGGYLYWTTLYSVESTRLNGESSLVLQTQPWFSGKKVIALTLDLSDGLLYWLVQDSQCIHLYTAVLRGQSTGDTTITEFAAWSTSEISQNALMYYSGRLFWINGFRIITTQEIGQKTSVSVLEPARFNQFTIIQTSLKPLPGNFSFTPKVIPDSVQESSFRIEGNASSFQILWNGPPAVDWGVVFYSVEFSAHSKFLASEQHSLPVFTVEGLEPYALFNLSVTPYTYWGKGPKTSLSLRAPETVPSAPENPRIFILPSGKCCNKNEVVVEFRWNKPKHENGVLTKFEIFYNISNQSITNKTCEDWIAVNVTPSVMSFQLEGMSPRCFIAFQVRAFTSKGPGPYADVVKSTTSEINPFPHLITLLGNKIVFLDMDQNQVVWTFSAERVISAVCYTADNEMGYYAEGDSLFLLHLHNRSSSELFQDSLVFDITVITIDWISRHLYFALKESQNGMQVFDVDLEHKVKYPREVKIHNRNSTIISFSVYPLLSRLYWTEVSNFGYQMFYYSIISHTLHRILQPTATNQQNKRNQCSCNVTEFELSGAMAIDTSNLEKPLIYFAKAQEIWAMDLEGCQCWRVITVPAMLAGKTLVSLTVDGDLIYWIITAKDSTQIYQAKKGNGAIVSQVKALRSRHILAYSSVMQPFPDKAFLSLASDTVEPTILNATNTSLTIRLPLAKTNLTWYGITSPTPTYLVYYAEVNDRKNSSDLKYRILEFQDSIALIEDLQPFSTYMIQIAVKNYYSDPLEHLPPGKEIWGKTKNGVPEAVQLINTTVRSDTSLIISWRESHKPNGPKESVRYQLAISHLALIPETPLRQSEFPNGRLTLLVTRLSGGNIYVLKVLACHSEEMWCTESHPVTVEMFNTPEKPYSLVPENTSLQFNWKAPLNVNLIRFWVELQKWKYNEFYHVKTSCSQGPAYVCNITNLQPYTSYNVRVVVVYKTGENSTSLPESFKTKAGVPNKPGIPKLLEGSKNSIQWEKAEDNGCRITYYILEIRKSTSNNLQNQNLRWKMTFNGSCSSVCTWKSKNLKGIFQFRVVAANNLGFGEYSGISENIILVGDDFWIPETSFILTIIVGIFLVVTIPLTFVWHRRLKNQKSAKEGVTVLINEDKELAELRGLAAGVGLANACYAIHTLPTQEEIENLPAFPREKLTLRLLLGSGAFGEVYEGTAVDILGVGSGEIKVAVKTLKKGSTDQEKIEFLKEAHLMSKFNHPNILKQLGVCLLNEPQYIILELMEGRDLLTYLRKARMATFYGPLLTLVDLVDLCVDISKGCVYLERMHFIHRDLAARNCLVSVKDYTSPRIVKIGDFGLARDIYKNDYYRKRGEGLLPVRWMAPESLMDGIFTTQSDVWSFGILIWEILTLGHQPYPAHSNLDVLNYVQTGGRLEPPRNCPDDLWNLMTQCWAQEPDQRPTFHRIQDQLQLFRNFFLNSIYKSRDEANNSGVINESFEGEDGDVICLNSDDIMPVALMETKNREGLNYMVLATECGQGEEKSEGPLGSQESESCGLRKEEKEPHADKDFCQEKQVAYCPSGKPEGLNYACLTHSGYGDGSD
Chain of ROS1 (P08922 28-2347): as the sequence (P08922 28-2347 G2032R) above, with R2005G counted along it
Chain of TRKA (G677C) (P04629 33-796 G667C limits assumed): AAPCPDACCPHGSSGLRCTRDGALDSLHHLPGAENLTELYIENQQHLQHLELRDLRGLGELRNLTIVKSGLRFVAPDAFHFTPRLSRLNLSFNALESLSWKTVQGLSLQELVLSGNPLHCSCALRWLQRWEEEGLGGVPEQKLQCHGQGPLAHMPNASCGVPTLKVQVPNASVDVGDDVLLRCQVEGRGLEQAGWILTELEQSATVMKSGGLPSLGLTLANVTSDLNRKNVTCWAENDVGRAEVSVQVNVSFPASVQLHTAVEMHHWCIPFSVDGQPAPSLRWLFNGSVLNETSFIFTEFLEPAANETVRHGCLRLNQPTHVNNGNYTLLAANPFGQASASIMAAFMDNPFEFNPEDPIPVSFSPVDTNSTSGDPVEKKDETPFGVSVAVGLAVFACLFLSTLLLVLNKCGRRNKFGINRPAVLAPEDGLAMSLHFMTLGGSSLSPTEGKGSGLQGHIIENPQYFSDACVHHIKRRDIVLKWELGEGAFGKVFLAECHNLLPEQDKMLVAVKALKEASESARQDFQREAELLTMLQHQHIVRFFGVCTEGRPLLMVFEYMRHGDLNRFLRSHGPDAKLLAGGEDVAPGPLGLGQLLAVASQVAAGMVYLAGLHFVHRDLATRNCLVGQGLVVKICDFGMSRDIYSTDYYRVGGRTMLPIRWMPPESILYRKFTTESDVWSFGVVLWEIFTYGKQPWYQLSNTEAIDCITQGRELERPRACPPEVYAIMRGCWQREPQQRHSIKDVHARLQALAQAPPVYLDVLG
Chain of TRKA (P04629 33-796): as the sequence (P04629 33-796 G667C limits assumed) above, with C635G counted along it
Chain of TRKB (Q16620 32-822): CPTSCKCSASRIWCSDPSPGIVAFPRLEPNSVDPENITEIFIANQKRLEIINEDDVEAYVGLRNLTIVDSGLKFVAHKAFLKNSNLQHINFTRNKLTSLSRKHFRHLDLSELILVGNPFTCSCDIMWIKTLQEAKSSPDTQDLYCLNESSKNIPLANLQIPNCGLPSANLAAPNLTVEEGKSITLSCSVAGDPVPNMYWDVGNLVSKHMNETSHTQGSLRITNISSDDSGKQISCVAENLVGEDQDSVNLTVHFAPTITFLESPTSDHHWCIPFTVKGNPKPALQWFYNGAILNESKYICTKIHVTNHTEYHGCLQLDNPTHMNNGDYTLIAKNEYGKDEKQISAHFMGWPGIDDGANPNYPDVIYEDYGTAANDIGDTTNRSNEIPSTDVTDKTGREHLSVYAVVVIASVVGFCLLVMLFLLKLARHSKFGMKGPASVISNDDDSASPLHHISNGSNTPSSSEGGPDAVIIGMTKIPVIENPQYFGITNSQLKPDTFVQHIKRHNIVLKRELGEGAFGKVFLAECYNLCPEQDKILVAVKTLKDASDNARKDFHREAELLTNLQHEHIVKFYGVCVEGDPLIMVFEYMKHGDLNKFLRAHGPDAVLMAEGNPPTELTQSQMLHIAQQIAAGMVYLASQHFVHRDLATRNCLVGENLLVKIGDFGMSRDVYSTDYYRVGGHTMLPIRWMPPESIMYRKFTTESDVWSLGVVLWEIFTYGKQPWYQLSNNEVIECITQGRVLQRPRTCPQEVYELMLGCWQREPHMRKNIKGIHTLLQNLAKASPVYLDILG
Chain of TRKA (G595R) (P04629 33-796 G595R): as the sequence (P04629 33-796 G667C limits assumed) above, with G563R, C635G counted along it
Chain of TRKC (Q16288 32-839): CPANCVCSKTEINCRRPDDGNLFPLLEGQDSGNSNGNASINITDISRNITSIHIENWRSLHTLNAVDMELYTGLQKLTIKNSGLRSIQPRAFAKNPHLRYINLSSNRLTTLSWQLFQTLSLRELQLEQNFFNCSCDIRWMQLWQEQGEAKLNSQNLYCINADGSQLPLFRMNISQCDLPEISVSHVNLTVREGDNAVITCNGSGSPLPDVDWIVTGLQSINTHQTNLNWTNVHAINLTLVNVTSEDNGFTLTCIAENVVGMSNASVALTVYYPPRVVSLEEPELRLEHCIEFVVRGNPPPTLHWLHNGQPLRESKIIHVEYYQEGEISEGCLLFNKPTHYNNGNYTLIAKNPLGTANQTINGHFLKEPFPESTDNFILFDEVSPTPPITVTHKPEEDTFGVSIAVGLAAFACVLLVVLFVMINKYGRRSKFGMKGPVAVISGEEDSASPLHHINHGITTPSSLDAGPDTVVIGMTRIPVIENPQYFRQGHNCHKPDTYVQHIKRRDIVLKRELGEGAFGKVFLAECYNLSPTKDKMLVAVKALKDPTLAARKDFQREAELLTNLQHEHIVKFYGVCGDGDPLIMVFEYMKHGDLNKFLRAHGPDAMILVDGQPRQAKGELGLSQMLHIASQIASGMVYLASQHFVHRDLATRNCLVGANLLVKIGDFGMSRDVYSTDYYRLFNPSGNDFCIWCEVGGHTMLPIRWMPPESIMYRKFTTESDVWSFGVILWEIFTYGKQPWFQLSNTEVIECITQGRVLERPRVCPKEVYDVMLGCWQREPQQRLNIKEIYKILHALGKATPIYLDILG

Row | SMILES | IC50 (ALK (G1202R)) | IC50 (TRKB) | IC50 (TRKA (G677C)) | IC50 (TRKA (G595R)) | IC50 (TRKA; [1]) | IC50 (TRKC) | IC50 (ROS1 (G2032R); [2]) | IC50 (ALK) | IC50 (ROS1) | IC50 (TRKA) | IC50 (Ba/F3-CD74-ROS1) | IC50 (Ba/F3-CD74-ROS1-G2032R) | IC50 (Ba/F3-LMNA-NTRK1-G595R) | IC50 (Ba/F3-TEL-ALK-G1202R) | IC50 (Ba/F3-LMNA-NTRK1) | IC50 (ROS1 (G2032R))
1 | COc1ccc(F)cc1[C@@H](C)Nc1ccn2ncc(C3=NOC(C)(C)N3)c2n1 [Example 10] | 0.5 to 5 nM | < 0.5 nM | 0.5 to 5 nM | 0.5 to 5 nM | < 0.5 nM | < 0.5 nM | < 0.5 nM | 5 to 50 nM | < 0.5 nM | – | 2.8 nM | 7.9 nM | 2.2 nM | 87.5 nM | 1.3 nM | –
2 | CCOc1ccc(F)cc1[C@@H](C)Nc1ccn2ncc(C3=NOC(C)(C)N3)c2n1 [Example 50] | 0.5 to 5 nM | < 0.5 nM | 0.5 to 5 nM | 0.5 to 5 nM | – | < 0.5 nM | < 0.5 nM | 5 to 50 nM | < 0.5 nM | 0.5 to 5 nM | – | – | – | – | – | –
3 | C[C@@H](Nc1ccn2ncc(C3=NOC(C)(C)N3)c2n1)c1cc(F)ccc1F [Example 5] | 5 to 50 nM | < 0.5 nM | 5 to 50 nM | 5 to 50 nM | – | < 0.5 nM | < 0.5 nM | 0.5 to 5 nM | < 0.5 nM | 0.5 to 5 nM | – | – | – | – | – | –
4 | CCc1ccc(F)cc1[C@@H](C)Nc1ccn2ncc(C3=NOC(C)(C)N3)c2n1 [Example 52] | 5 to 50 nM | 0.5 to 5 nM | 50 to 500 nM | 5 to 50 nM | – | < 0.5 nM | – | 50 to 500 nM | < 0.5 nM | 0.5 to 5 nM | – | – | – | – | – | 0.5 to 5 nM

More lines, now with the values ahead:

Row | IC50 (ALK (G1202R)) | IC50 (TRKB) | IC50 (TRKA (G677C)) | IC50 (TRKA (G595R)) | IC50 (TRKA; [1]) | IC50 (TRKC) | IC50 (ROS1 (G2032R); [2]) | IC50 (ALK) | IC50 (ROS1) | IC50 (TRKA) | IC50 (Ba/F3-CD74-ROS1) | IC50 (Ba/F3-CD74-ROS1-G2032R) | IC50 (Ba/F3-LMNA-NTRK1-G595R) | IC50 (Ba/F3-TEL-ALK-G1202R) | IC50 (Ba/F3-LMNA-NTRK1) | IC50 (ROS1 (G2032R)) | SMILES
5 | 0.5 to 5 nM | < 0.5 nM | 5 to 50 nM | 0.5 to 5 nM | < 0.5 nM | < 0.5 nM | < 0.5 nM | 5 to 50 nM | < 0.5 nM | – | – | – | – | – | – | – | COc1ncc(F)cc1[C@@H](C)Nc1ccn2ncc(C3=NOC(C)(C)N3)c2n1 [Example 28]
6 | 0.5 to 5 nM | < 0.5 nM | 5 to 50 nM | 5 to 50 nM | – | < 0.5 nM | < 0.5 nM | 5 to 50 nM | < 0.5 nM | 0.5 to 5 nM | – | – | – | – | – | – | CC(C)Oc1ccc(F)cc1[C@@H](C)Nc1ccn2ncc(C3=NOC(C)(C)N3)c2n1 [Example 51]
